Assay results reported in patent US20100062939A1, “Herbicide/Safener Combination Comprising Dimethoxytriazinyl-Substituted Difluoromethanesulfonylanilides” (BAYER CROPSCIENCE AG, priority 2008, published 2010).

Experiments:
Assay type in all cases: in vivo
[1] = test system: rice (cultivar: Rice Ballila); assay: Crop plant compatibility, post-emergence, rice; details: individual compound, no safener
Procedure: (§1) Seeds of crop plants were placed in sandy loam and then covered with soil. The pots were placed in a greenhouse and kept under good growth conditions for the crop plants. Two weeks after sowing, the test plants were treated at the 1-3 leaf stage. The active compounds of components (A) and (B), formulated in the form of wettable powders, were then sprayed as aqueous suspensions at various dosages onto the green parts of the plants, using an application rate of 300 l of water/ha (converted).
(§2) The visual scoring of the herbicidal effects in the combination with or without safener was carried out after the number of days stated in the tables (DAT=days after treatment). Scoring was carried out in percent in comparison to the untreated control plants (herbicidal activity in %). 0%=no herbicidal activity, 100%=complete herbicidal activity=complete kill.
(§3) The safener action was calculated by comparing the herbicidal activity in % of the herbicide combination without (individual compound) and with safener (combination). The difference of the herbicidal activity in % between the individual compound and the combination was then calculated in percent (safener action in %): 0%=no improvement by addition of safener, 100%=complete improvement by addition of safener=maximum crop plant compatibility.

[2] = test system: barley (cultivar: Adonis); assay: Crop plant compatibility, post-emergence, barley; details: 17 DAT, individual compound, no safener
Procedure: as §1, §2, §3

[3] = test system: corn (cultivar: Oldham); assay: Crop plant compatibility, post-emergence, corn; details: 17 DAT, individual compound, component A 20 g of ai/ha, no safener
Procedure: as §1, §2, §3

[4] = test system: wheat (cultivar: Triso); assay: Crop plant compatibility, post-emergence, wheat; details: individual compound, no safener
Procedure: as §1, §2, §3

[5] = 17 DAT, component A 20 g of ai/ha

COc1nc(OC)nc(C(O)c2cccc(F)c2NS(=O)(=O)C(F)F)n1 (centres unmarked) [compound (A-3)]
Herbicidal activity in % ([1]; 10 DAT, component A 2.2 g of ai/ha): 30%
Herbicidal activity in % [1, 5]: 50%
Herbicidal activity in % ([2]; component A 6.7 g of ai/ha): 10%
Herbicidal activity in % ([2]; component A 20 g of ai/ha): 20%
Herbicidal activity in % [3]: 30%
Herbicidal activity in % ([4]; 10 DAT, component A 6.7 g of ai/ha): 5%
Herbicidal activity in % ([4]; 17 DAT, component A 2.2 g of ai/ha): 8%
Herbicidal activity in % [4, 5]: 20%
